From patent publication US20070185176A1, “Heparanase inhibitors and uses thereof” (Insight Bioharmaceuticals Ltd., priority 2004, published 2007)

Experiments:
HT1080 cells = test: In vitro assay of invasion inhibition (BD BioCoat Angiogenesis System, matrigel); type: cell-based, human; conditions: for Invasion: HT1080 cells through matrigel, non-toxic concentration, 22 hours
Method: (c) In Vitro Assay of Invasion Inhibition by Heparanase Inhibitors
The ability of the compounds of the invention to inhibit cell invasion was determined quantitatively by the in vitro Endothelial Cell Migration assay using a BD BioCoat Angiogenesis System kit. The kit consists of a 24-multiwell insert plate (FluoroBlok, BD Falcon) containing a microporous (3.0 μm pore size) polyethylene terephthalate (PET) membrane that is capable of blocking fluorescence completely (>99% efficiency). This membrane is uniformly coated with matrigel (BD Matrigel Matrix). The uniform layer of matrigel matrix serves as a reconstituted authentic basement membrane in vitro, providing a true barrier to non-invasive cells, but allowing endothelial cells to attach to the membrane and freely migrate towards an angiogenic stimulus in the lower chamber of the insert plate. Post-labeling the cells with a fluorescent dye and measuring the fluorescence of invading cells in a fluorescent plate reader, provides quantitative measurement of cell invasion.
To cover the optimal seeding density for HT1080 cells, suspensions containing various cell concentrations were prepared: 1 ml of 3×10^5 cells/ml, 8 ml of 1.5×10^5 cells/ml and 1 ml of 0.75×10^5 cells/ml. The top chambers of each well in the inserts was filled with 0.25 ml cell-suspension, […] DMEM containing 5% fetal calf serum and an inhibitor solution. The plates were incubated for 22 hours at 37° C. and 8% CO2 atmosphere. At the end of incubation, the medium was aspirated from the upper chambers, and the insert was transferred into a second 24-well plate containing 0.5 ml/well of the fluorescent dye Calcein AM solution (4 μg/ml per plate, prepared from 50 μg Calcein AM dissolved in 20 μl DMSO and 12.5 ml of warm HBSS medium), and incubated for 90 minutes at 37° C., 8% CO2 atmosphere. Fluorescence of invaded cells was read in a fluorescence plate reader with bottom read capabilities at excitation/emission wavelength of 485/530 nm, without further manipulation. Only those labeled cells that have invaded the matrigel and passed through the pores of the PET membrane, were detected.

[1] = molecular target: T1, human recombinant heparanase (h-hpa) (Homo sapiens, UniProt Q9Y251); test: In vitro dimethylmethylene blue (DMB) assay for heparanase activity
T1 sequence (Q9Y251 158-543 limits assumed): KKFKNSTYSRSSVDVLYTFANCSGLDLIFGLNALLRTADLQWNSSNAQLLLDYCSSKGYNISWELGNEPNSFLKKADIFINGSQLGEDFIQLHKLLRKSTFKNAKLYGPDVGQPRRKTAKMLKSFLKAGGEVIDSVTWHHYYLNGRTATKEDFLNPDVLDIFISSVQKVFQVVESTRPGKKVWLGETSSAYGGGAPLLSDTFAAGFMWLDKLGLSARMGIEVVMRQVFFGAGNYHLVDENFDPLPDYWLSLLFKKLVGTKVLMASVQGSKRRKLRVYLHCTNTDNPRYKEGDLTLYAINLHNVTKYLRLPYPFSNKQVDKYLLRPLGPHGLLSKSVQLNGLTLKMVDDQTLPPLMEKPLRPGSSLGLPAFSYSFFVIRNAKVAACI
T1 sequence (Q9Y251 36-109 limits assumed): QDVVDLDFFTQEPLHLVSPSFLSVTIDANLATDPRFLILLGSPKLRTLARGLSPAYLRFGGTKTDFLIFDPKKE
Method: (a) In Vitro Dimethylmethylene Blue (DMB) Assay for Heparanase Activity
Heparin Sepharose CL-6B beads were added up to the top of the wells of a multiscreen column loader (Millipore). A 96-well multiscreen plate containing 0.65 μm hydrophilic, low protein binding, Durapore membrane (Millipore) was placed, upside down, on top of the multiscreen column loader. The column loader and the multiscreen plate were held together, turned over, and the beads were uniformly transferred from the column loader to the multiscreen plate (Millipore, MADVM 650). Double-distilled water (DDW) was then added to the beads, which were allowed to swell for one minute, and then washed (three times) with DDW under vacuum. Heparin concentration was estimated to be 10 μM/well.
To each well, phosphate-buffered saline (PBS) containing 1% bovine serum albumin (BSA; 70 μl/well) and DMB (32 mg of DMB were dissolved in 5 ml ethanol, diluted to 1 liter with formate buffer containing 4 g sodium formate and 4 ml formic acid; 120 μl/well) were added. Color was developed after 5 minutes, and the absorbance of the samples was determined using a microplate reader (Spectra Max, Molecular Devices) at 530 nm with 570 nm as reference. The absorbance correlated to heparanase activity. As a control, heparanase was added to the heparin Sepharose swollen beads in the multiscreen plate and the heparanase reaction products were filtered immediately thereafter and the absorbance of these control samples was subtracted from all other samples.
The cell extracts were centrifuged and resuspended in 20 mM phosphate citrate buffer, pH 5.4 containing 50 mM NaCl. The cells were lysed by three cycles of freezing and thawing. The cell lysates were centrifuged (10000×g for 5 min), supernatants were collected and then assayed for heparanase activity using the DMB assay.
The partially purified human recombinant heparanase or the crude cell extracts expressing either human or mouse recombinant heparanase were added for a 3-hour incubation and the reaction continued as described above. Absorbance of the developing color was measured as described above.

| IC50 [1] | Structure (SMILES) | inhibition of cell invasion (HT1080 cells) | Invasion (HT1080 cells) |
| --- | --- | --- | --- |
| – | CCCCCCCCCCCCCCCCCC(=O)NC1=NN(c2ccc(Oc3ccccc3)c(S(=O)(=O)O)c2)C(=O)C1 [Compound 1] | effective inhibitors of cell invasion | yes |
| 1700 nM | CCCCCCCCCCCCCCCCCC(=O)NNC(=O)CC(=O)Nc1ccccc1C(=O)O [Compound 2] | effective inhibitors of cell invasion | yes |
| 380 nM | CCCCCCCCCCCCCCCCCCN(C(=O)c1ccc2ccccc2c1O)c1cc(C(=O)O)cc(C(=O)O)c1 [Compound 3] | effective inhibitors of cell invasion | yes |
| 1200 nM | CCCCCCCCCCCCCCCCCC1=Nn2c(nc3c(C(=O)O)cc(S(=O)(=O)O)cc32)C1 [Compound 4] | – | yes |
| 160 nM | CCCCCCCCCCCCCCCCCC(=O)NC1=NN(c2ccc(Oc3ccccc3)c(S(=O)(=O)O)c2)C(=O)C1/N=N/c1cc(C(=O)O)c(O)cc1Cl (centres unmarked) [Compound 9] | – | yes |
| 260 nM | CCCCCCCCCCCCCCCCCC1=NN(c2ccc(Oc3ccccc3)c(S(=O)(=O)O)c2)C(=O)C1/N=N/c1ccc(N(CC)CC)cc1 (centres unmarked) [Compound 10] | – | yes |
| 240 nM | CCCCCCCCCCCCCCCCCC1=NN(c2ccc(Oc3ccccc3)c(S(=O)(=O)O)c2)C(=O)C1/N=N/c1c(C)n[nH]c1C (centres unmarked) [Compound 12] | – | yes |
| 1000 nM | CCCCCCCCCCCCCCCC1=NN(c2ccc(S(=O)(=O)O)cc2)C(=O)C1Br (centres unmarked) [Compound 13] | – | yes |
| 250 nM | CCCCCCCCCCCCCCCCCC1=NN(c2ccc(Oc3ccccc3)c(S(=O)(=O)O)c2)C(=O)C1/N=N/c1ccc(O)c(OC)c1 (centres unmarked) [Compound 15] | – | yes |
| 220 nM | CCCCCCCCCCCCCCCCCC1=NN(c2ccc(Oc3ccccc3)c(S(=O)(=O)O)c2)C(=O)C1/N=N/c1cccc(O)c1 (centres unmarked) [Compound 16] | – | yes |
| 2700 nM | CCCCCCCCC(CCCCCCCC)C1=NN(c2cccc(S(=O)(=O)O)c2)C(=O)C1 [Compound 17] | – | yes |
| 290 nM | CCCCCCCCCCCCCCCCCC(=O)NC1=NN(c2ccc(Oc3ccccc3)c(S(=O)(=O)O)c2)C(=O)C1/N=N/c1cc(C(=O)OC)ccc1O (centres unmarked) [Compound 18] | – | yes |
| 320 nM | CCCCCCCCCCCCCCCCCC1=NN(c2ccc(Oc3ccccc3)cc2S(=O)(=O)O)C(=O)C1/N=N/c1ccc(OC)cc1 (centres unmarked) [Compound 19] | – | yes |
| 650 nM | CCCCCCCCCCCCCCCCCC(=O)NC1=NN(c2ccc(Oc3ccccc3)c(S(=O)(=O)O)c2)C(=O)C1/N=N/c1c(C)nn(C)c1C (centres unmarked) [Compound 22] | – | yes |
| 630 nM | CCCCCCCCCCCCCCCCCC1=NN(c2ccc(Oc3ccc(OCC)cc3)c(S(=O)(=O)O)c2)C(=O)C1 [Compound 24] | – | yes |
| 1000 nM | CCCCCCCCCCCCCCCCOc1ccccc1C1C=NN(c2ccc(S(=O)(=O)O)cc2)C1=O (centres unmarked) [Compound 28] | – | yes |
| 320 nM | CCCCCCCCCCCCCCCCCC1=NN(c2ccc(Oc3ccccc3)c(S(=O)(=O)O)c2)C(=O)C1 [Compound 29] | – | yes |
| 160 nM | CCCCCCCCCCCCCCCCCC1=NN(c2ccc(Oc3ccccc3)c(S(=O)(=O)O)c2)C(=O)C1C(C)C (centres unmarked) [Compound 30] | – | yes |
| 520 nM | CCCCCCCCCCCCCCCc1ccc(OC(CC)C(=O)NCCCNC(=O)c2ccc3ccccc3c2O)cc1 (centres unmarked) [Compound 31] | – | yes |
| 240 nM | CCCCCCCCCCCCCCCCCC(=O)Nc1nn(-c2ccc(Oc3ccccc3)c(S(=O)(=O)O)c2)c(O)c1/N=N/c1c(C)nn(CCCCCCCCCC)c1C [Compound 32] | – | yes |
| 550 nM | CCCCCCCCCCCCCCCCCCN(C(=O)c1cc(Br)c2ccccc2c1O)c1cc(C(=O)O)cc(C(=O)O)c1 [Compound 43] | – | yes |
| 400 nM | CCCCCCCCCCCCCC(=O)NC1=NN(c2ccc(Oc3ccccc3)c(S(=O)(=O)O)c2)C(=O)C1 [Compound 83] | – | – |

| IC50 [1] | Structure (SMILES) | inhibition of cell invasion (HT1080 cells) | Invasion (HT1080 cells) |
| --- | --- | --- | --- |
| 730 nM | CCCCCCCCCCCCCCC(=O)NC1=NN(c2ccc(Oc3ccccc3)c(S(=O)(=O)O)c2)C(=O)C1 [Compound 84] | – | – |
| 400 nM | CCCCCCCCCCC/C=C\CCCCC(=O)NC1=NN(c2ccc(Oc3ccccc3)c(S(=O)(=O)O)c2)C(=O)C1 [Compound 85] | – | – |
| 2000 nM | CCCCCCCCCCC/C=C\CCCCC(=O)Nc1cc(C(=O)O)ccc1Oc1cc(C(=O)O)cc(C(=O)O)c1 [Compound 86] | – | – |
| 400 nM | CCCCCCCCCCCC1OC1CCCCC(=O)Nc1cc(C(=O)O)ccc1Oc1cc(C(=O)O)cc(C(=O)O)c1 (centres unmarked) [Compound 87] | – | – |
| 4400 nM | CCCCCCCCCCCCCCCCOc1ccc(S(=O)(=O)O)cc1C(=O)O [Compound 88] | – | – |
| 5500 nM | CCCCCCCCCCCCCCCCS(=O)(=O)c1ccc(S(=O)(=O)O)cc1C(=O)O [Compound 89] | – | – |
| 8500 nM | CCCCCCCCCCCCCCCCCC/C=C/c1cc(C(=O)O)c2oc3c(C(=O)O)cccc3c2c1 [Compound 90] | – | – |
| 15000 nM | CCCCCCCCCCCCCCCCCCNCC(O)Cn1c2ccc(Br)cc2c2cc(Br)ccc21 (centres unmarked) [Compound 91] | – | – |
| 9150 nM | CCCCCCCCCCCC(Cl)C(O)CCCCC(=O)Nc1cc(C(=O)O)ccc1Oc1cc(C(=O)O)cc(C(=O)O)c1 (centres unmarked) [Compound 93] | – | – |
| 18000 nM | C=CCCCCCCCCC(=O)CCCCCC(=O)Nc1cc(C(=O)O)ccc1Oc1cc(C(=O)O)cc(C(=O)O)c1 [Compound 94] | – | – |
| 1000 nM | CCCCCCCCCCCC1OC1CCCCC(=O)Nc1cc(C(=O)O)ccc1Oc1cc(C(N)=O)cc(C(=O)O)c1 (centres unmarked) [Compound 95] | – | – |
| 1600 nM | CCCCCCCCCCCC1OC1CCCCC(=O)Nc1cc(C(=O)O)ccc1Oc1cc(C(N)=O)cc(C(N)=O)c1 (centres unmarked) [Compound 96] | – | – |
| 6000 nM | CCCCCCCCCCCCC/C=C/CC(O)(C(=O)O)C(F)(F)F (centres unmarked) [Compound 97] | – | – |
| 1500 nM | CCCCCCCCCCCCC/C=C/CC(O)(C(=O)Cc1cc(C(=O)O)ccc1Oc1cc(C(=O)O)cc(C(=O)O)c1)C(F)(F)F (centres unmarked) [Compound 98] | – | – |
| 16000 nM | CCCCCCCCCCCC1OC1CCCCC(=O)On1nnc2ccccc2c1=O (centres unmarked) [Compound 99] | – | – |
| 270 nM | CCCCCCCCCCCC1OC1CCCCC(=O)NC1=NN(c2ccc(Oc3ccccc3)c(S(=O)(=O)O)c2)C(=O)C1 (centres unmarked) [Compound 100] | – | – |
| 630 nM | CCCCCCCCCCCCCCCCCCn1c(-c2ccccc2)nc2cc(S(=O)(=O)O)ccc21 [Compound 102] | – | – |
| 7700 nM | CCCCCCCCCCCCCCCCCCNC(=O)C1CC(=O)N(c2ccc(Oc3ccc(S(=O)(=O)O)cc3)cc2)C1 (centres unmarked) [Compound 103] | – | – |
| 470 nM | CCCCCCCCCCCCCCCCCCNC(=O)C1CC(=O)N(c2ccc(Oc3ccc(S(=O)(=O)O)cc3)c(S(=O)(=O)O)c2)C1 (centres unmarked) [Compound 104] | – | – |
| 860 nM | CCCCCCCCCCCCCCCCCCNC(=O)C1CC(=O)N(c2ccc(Oc3ccc(Br)cc3)c(S(=O)(=O)O)c2)C1 (centres unmarked) [Compound 105] | – | – |
| 300 nM | CCCCCCCCCCCCCCCCCCNC(=O)C1CC(=O)N(c2ccc(Oc3ccc(C(N)=O)cc3)c(S(=O)(=O)O)c2)C1 (centres unmarked) [Compound 106, 2-(4-amido-phenoxy)-5-(4-octadecyl-carbamoyl-2-oxo-pyrrolidin-1-yl)-benzene sulfonic acid] | – | – |
| 330 nM | CCCCCCCCCCCCCCCCCCNC(=O)C1CC(=O)N(c2ccc(Oc3ccc(C(=O)O)cc3)c(S(=O)(=O)O)c2)C1 (centres unmarked) [Compound 107, 2-(4-carboxy-phenoxy)-5-(4-octadecyl-carbamoyl-2-oxo-pyrrolidin-1-yl)-benzene sulfonic acid] | – | – |

| Structure (SMILES) | IC50 [1] | inhibition of cell invasion (HT1080 cells) | Invasion (HT1080 cells) |
| --- | --- | --- | --- |
| CCCCCCCCCCCC1SC1CCCCC(=O)Nc1cc(C(=O)O)ccc1Oc1cc(C(=O)O)cc(C(=O)O)c1 (centres unmarked) [Compound 92] | 500 nM | – | – |
